The values that follow come from US20080194611A1, “Modulation of Cell Barrier Dysfunction” (priority 2005, published 2008).

The conditions of data set [1]: cited from earlier work.
The subject of data set [2] is PA-I lectin/adhesin expression in P. aeruginosa 27853/PLL-EGFP.
Data set [3] deals with MDCK cells. The class given is cell-based.
Data set [4] relates to P. aeruginosa biofilm. The class given is cell-based, Pseudomonas aeruginosa.
The subject of data set [5] is PA-I lectin/adhesin expression in P. aeruginosa PA27853 and PAO1.
Data set [6] concerns Human pulmonary microvascular endothelial cell. It is filed as cell-based. The following applies: for effect of agonist alone on endothelial cell barrier function (TER): HPMVEC.
The test system of data set [7] is pyocyanin (PCN) production in P. aeruginosa. The class given is cell-based, Pseudomonas aeruginosa.
For data set [8] the following is noted: in vivo; cited from earlier work.
For data set [9], the system named is S1P3 receptor. Nature of the data set: Tyrosine phosphorylation (transactivation) of the S1P3 receptor. The class given is cell-based, Human. The following applies: pre-treatment.
The conditions of data set [10]: cited from earlier work. The source holds these as a separate data set.
In data set [11] the test system is P. aeruginosa whole cells and membrane fractions. Nature of the data set: ELISA / immunofluorescence binding of cytokines to P. aeruginosa cells and membrane fractions. Further details: species or system Pseudomonas aeruginosa. The following applies: for binding to P. aeruginosa membrane fractions: PAO1 membranes, ELISA. Here is the method:
IFN-γ direct binding to a protein on the surface of P. aeruginosa, in the course of virulence activation, was also investigated. ELISA binding assays were performed by first coating microtiter plates with P. aeruginosa (strain PAO1), then adding recombinant human IFN-γ (rH IFN-γ), followed by biotin-labeled anti-IFN-γ antibody. […] In order to localize the binding site of IFN-γ to P. aeruginosa (PAO1), equal protein concentrations of membrane and cytosol fractions of P. aeruginosa were prepared and coated onto ELISA microtiter plates.

Data set [12] relates to quorum sensing signaling system of P. aeruginosa PAO1. Kind of data set: Quorum sensing activation in PAO1 (rhlI Northern blot, C4-HSL in supernatants). It is filed as cell-based, Pseudomonas aeruginosa.
Data set [13] concerns the target T1, outer membrane protein OprF (Pseudomonas aeruginosa, UniProt P13794).
T1 sequence (P13794 25-350): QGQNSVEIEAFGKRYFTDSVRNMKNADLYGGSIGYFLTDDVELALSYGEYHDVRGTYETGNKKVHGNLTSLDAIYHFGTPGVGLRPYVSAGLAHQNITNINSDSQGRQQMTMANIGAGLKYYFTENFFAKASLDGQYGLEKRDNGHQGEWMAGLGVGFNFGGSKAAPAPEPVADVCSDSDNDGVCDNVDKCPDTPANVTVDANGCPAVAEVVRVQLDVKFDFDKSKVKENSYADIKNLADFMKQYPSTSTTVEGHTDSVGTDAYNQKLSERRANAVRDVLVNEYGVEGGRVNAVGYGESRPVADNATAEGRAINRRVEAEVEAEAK
Nature of the data set: Binding of IFN-γ to purified OprF. The following applies: dose-dependent.

Data set [14] deals with Caco-2 cell monolayers. Nature of the data set: Barrier dysregulation of Caco-2 monolayers by PA27853 in the presence of IFN-γ. It is filed as cell-based, Human. The following applies: after five hours of incubation. Here is the method:
In addition, strains were exposed to apical media from Caco-2 cells basolaterally exposed to single and combinations of the various epithelial-derived cytokines. […] Media from Caco-2 cells exposed to various combinations of these cytokines had no effect on PA-I expression. […] Using both ELISA, immunofluorescence microscopy, and flow cytometry, the binding characteristics of IFNγ were determined for both whole bacteria and membrane fractions of P. aeruginosa. […] These effects were also observed with strain PAO1. […] It has been difficult to immunoprecipitate a significant quantity of this protein from PA27853, but it has been determined that this protein can also be immunoprecipitated from E. coli. Next, IFN-γ binding specificity, to whole bacterial cells, was determined, using reiterative binding studies in the presence of various gram-negative bacterial strains, including P. aeruginosa. […] Finally, in order to determine if PA-I was functionally expressed in […] in the presence IFN-γ, PA27853 was inoculated onto Caco-2 cell monolayers in the presence of IFN-γ and the effect on barrier dysregulating dynamics of PA27853 against this cell line were assessed to determine if IFN-γ shifted the dynamics. IFN-γ enhanced the barrier dysregulating effect of PA27853 against the intestinal epithelium after five hours of incubation by about 20%. […]

As for `C[C@H]1CN(C[C@H](Cc2ccccc2)C(=O)NCC(=O)O)CCC1(C)c1cccc(O)c1` (single isomer, unassigned; (+)) [formula (II), (+)-Z-NHCH2 C(O)OH], in data set [1], the solubility in water entry is “low solubility in water except at low or high pH conditions”.
Turning to `Nc1ncnc2c1ncn2[C@@H]1O[C@H](COP(=O)(O)OP(=O)(O)O)[C@@H](O)[C@H]1O` [ADP], the PA-I expression entry in data set [2] is “no evident inducing effect”.
Regarding `Nc1ncnc2c1ncn2[C@@H]1O[C@H](COP(=O)(O)O)[C@@H](O)[C@H]1O` [AMP], in [2], the PA-I expression entry is listed as “no evident inducing effect”.
As to `Nc1ncnc2c1ncn2[C@@H]1O[C@H](COP(=O)(O)OP(=O)(O)OP(=O)(O)O)[C@@H](O)[C@H]1O` [ATP], the PA-I expression result in [2] was “no evident inducing effect”.
Regarding `C=CCN1C[C@H](C)N([C@H](c2ccc(C(=O)N(CC)CC)cc2)c2cccc(O)c2)C[C@H]1C` [BW373U86], the “PA-I expression judged by fluorescence of the GFP reporter strain” value in data set [2] is recorded as “greatest effect on PA-I expression”. Moreover, the “additional TEER decrease” value in data set [3] is listed as roughly 25%. Also, the biofilm production in data set [4] is reported as ~180 % of PA27853 induction. Moreover, in data set [5], the PA-I protein expression entry is “induced a response equal to C4-HSL” and the “response to express PA-I” value was “induce a robust response”.
In the case of `C[C@@H](O)C(=O)O` [D-lactate], in data set [2], the “PA-I promoter activity (fluorescence)” value is “had no effect on PA-I promoter activity”.
Consider `C[C@@H](NC(=O)[C@@H](N)Cc1ccc(O)cc1)C(=O)NCC(=O)N(C)[C@@H](Cc1ccccc1)C(=O)NCCO` [DAMGO, [D-Ala^2, N-MePhe^4, Gly^5-ol]], for which the “effect of agonist alone on endothelial cell barrier function (TER)” value in data set [6] is recorded as “induced endothelial cell barrier disruption in a dose-dependent manner”.
As to `CC(=O)N[C@H]1C(O)O[C@H](CO)[C@H](O)[C@@H]1O` (some centres unmarked) [GalNac, N-acetylgalactoside], in data set [5] (Caco-2), the “PA-I mRNA increase on dense adherence to Caco-2 cells” value is reported as “nearly completely abolished” and the “PA-I mRNA induced by Caco-2 cell membrane fractions” value is recorded as “attenuated”.
As for `C[C@H](O)C(=O)O` [L-lactate], the “PA-I promoter activity (fluorescence)” value in data set [2] is “had no effect on PA-I promoter activity”.
For `COC(=O)c1ccccc1N` [MA, methyl anthranilate], the “effect on U-50,488-enhanced PCN production” value in data set [7] was “inhibited the ability of U-50,488 to enhance PCN production”.
Turning to `Oc1ccc2c3c1O[C@H]1c4[nH]c5c(c4C[C@@]4(O)[C@@H](C2)N(CC2CC2)CC[C@]314)C[C@@]1(O)[C@H]2Cc3ccc(O)c4c3[C@@]1(CCN2CC1CC1)[C@H]5O4` [NOR, nor-binaltorphimine], in [7], the “effect on U-50,488-enhanced PCN production” value is listed as “attenuates enhanced PCN production”. Besides, the “dose that completely inhibits U-50,488-enhanced PCN production” value in data set [7] (PAO1) came out at 200 µM.
Turning to `CC(C)(C)n1nc(-c2ccc(Cl)cc2)c2c(N)ncnc21` [PP2], in [6] (Src family kinase inhibition), the “effect on S1P-mediated endothelial cell barrier enhancement” value is given as “did not affect S1P-mediated endothelial cell barrier enhancement” and the “effect on agonist-induced barrier disruption” value is recorded as “blocked agonist-induced barrier disruption”.
With `Nc1ncnc2c1ncn2[C@@H]1O[C@H](CO)[C@@H](O)[C@H]1O` [adenosine], in data set [2], the PA-I expression entry is on record as “increased”, the “PA-I promoter activity (fluorescence)” value is “enhanced fluorescence” and the “exposure time before PA-I promoter activity was observed” value is on record as 6 h. In addition, the “PA-I expression, compound alone in media” value in [5] was “none of the other compounds alone had any effect”.
Consider `OC[C@H]1O[C@@H](n2cnc3c(O)ncnc32)[C@H](O)[C@@H]1O` [inosine], for which, in [2], the “change in PA-I expression over time, magnitude versus adenosine” value is reported as “effect of inosine greater”; the “concentration inducing PA-I expression relative to adenosine” value amounted to 10 fold less than adenosine; the “onset of PA-I expression versus adenosine” value was “at an earlier time point and at lower cell densities (OD) compared to adenosine”.
As to `C=CCN1CC[C@]23c4c5ccc(O)c4O[C@H]2C(=O)CC[C@@]3(O)[C@H]1C5` [naloxone], in data set [8], the “crossing of the blood-brain barrier” value is reported as “crosses the blood-brain barrier easily”. The “effect on MS- and DAMGO-induced endothelial cell barrier disruption” value in [6] is “blocked”. The “barrier protection with thrombin and LPS challenge” value in [6] (0.1 μM) was “did not display the same endothelial cell barrier-protective effects as MNTX”. For the same molecule, in data set [9], the “effect on morphine- and DAMGO-induced S1P3 receptor transactivation” value is “blocked the effects of morphine and DAMGO”. In addition, the “effect on morphine-induced PA-I lectin/adhesin expression” value in [2] was “significantly attenuated”. For the same molecule, in [10], the “lipid solubility / polarity” value is “fairly lipid-soluble”.
Turning to “EGF: human cytokine tested for membrane binding”, the “binding to P. aeruginosa membrane fractions” value in data set [11] is listed as “No binding was observed”.
For “IFN-γ: human recombinant interferon gamma”, the C4-HSL synthesis result in [12] (100 ng/ml IFN-γ) is on record as “increased”. Besides, the rhlI gene transcription result in [12] (Northern blot) is given as “induced rhl1 transcription”. In [11] (PA27853), the “binding to whole bacterial cells” value is on record as “high binding affinity”. For the same molecule, in data set [11] (PAO1), the “ELISA binding to whole fixed cells” value is given as “avidly bound to whole fixed cells of P. aeruginosa in a dose-dependent manner” and the “bacterial cells that bound IFN-γ (immunofluorescent imaging)” value was 73%±3.2%. For the same molecule, the “binding to P. aeruginosa membrane fractions” value in [11] was “preferentially bound to membrane fractions”. Also, in data set [2], the “PA-I expression (fluorescence)” value is “significant increase in PA-1 expression”. In addition, the “binding to purified OprF” value in data set [13] is reported as “directly binds”. Besides, in data set [7], the pyocyanin production entry is given as “increased pyocyanin production”. Also, in data set [5], the PA-I expression entry was “induced PA-I expression”; the “PA-I expression, compound alone in media” value is listed as “induced a direct effect on PA-I expression”; the “PA-I mRNA and protein” value was “increased”; the “PA-I protein expression, dose dependence” value is given as “dose dependent, with the greatest increase seen with 100 ng/ml”. Moreover, in [5], the “lecA (PA-I) mRNA by Northern blot” value was “induced lecA mRNA” and the “response to express PA-I” value is reported as “induce a robust response”. Also, the “enhancement of barrier dysregulating effect of PA27853” value in data set [14] is reported as “about 20%”.
With IL-4: human cytokine, the “binding to P. aeruginosa membrane fractions” value in [11] is “No binding was observed”.
With IL-6: human cytokine, the “PA-I expression, compound alone in media” value in data set [5] is listed as “none of the other compounds alone had any effect”.
IL-8: human cytokine: the “PA-I expression, compound alone in media” value in data set [5] is given as “none of the other compounds alone had any effect”.
Consider IL-10: human cytokine, for which the “binding to P. aeruginosa membrane fractions” value in data set [11] was “No binding was observed”.
Regarding TGF-β, in [11], the “binding to P. aeruginosa membrane fractions” value is given as “No binding was observed”.
In the case of TNF-α, the “binding to P. aeruginosa membrane fractions” value in [11] is “No binding was observed”. Also, in data set [5], the “PA-I expression, compound alone in media” value is “none of the other compounds alone had any effect”.
With Thrombin, in data set [6], the “effect of agonist alone on endothelial cell barrier function (TER)” value was “induced a rapid transient decrease in endothelial cell barrier function”.
Take adenosine deaminase: the “PA-I expression after adenosine depletion of HIF-1-α-activated Caco-2 media” value in data set [2] (Caco-2) is recorded as “even greater increase in PA-I expression”.
Consider dynorphin, for which the PCN production result in [7] is “enhanced PCN production in a dose-dependent manner”.
